Laboratory results published in US10111854B2, “Synthesis and use of amine-containing flavonoids as potent anti-leishmanial agents” (The Hong Kong Polytechnic University, priority 2014, dated 2018).
Read-outs that look alike come from different tables or passages of the source.

Assays:
[1] = Pharmacokinetics of FM05 hydrochloride salt, oral; format: in vivo, Balb/c mice; conditions: male, Balb/c, mouse, plasma, 42 mg/kg, oral, saline; for half-life: po
Method: Based on the result of the preliminary in vivo study, FM05 hydrochloride salt was selected for further investigation. FM05 hydrochloride salt was dissolved in saline at 4 mg/ml and administered to male balb/c at 42 mg/kg. Blood plasma samples were collected at various time points for pharmacokinetics analysis (n=2 to 3 for each time point).

[2] = system: amastigotes (L. amazonensis LV78, L. braziliensis UA847, L. donovani HU3, L. donovani 39); assay: Anti-amastigote activity, strain not given; format: cell-based; conditions: strain not specified; visceral and cutaneous Leishmania; read-out: IC50 against amastigotes
Summary of the method: (§1)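 IC50 values derive from the number of amastigotes per 100 macrophages, counted on Giemsa-stained cover slips. Infected mouse PEM had been treated for 72 h at 37 °C.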

[3] = system: L. donovani Ld39 promastigotes; assay: Anti-promastigote activity (MTS assay), L. donovani Ld39; format: cell-based; conditions: Leishmania donovani, 72 hours
Summary of the method: (§2)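 Promastigotes (1×10^5 per well) in Schneider's medium pH 6.9 with 10% FBS, exposed to serial compound concentrations for 72 h at 27 °C. Viability by MTS/PMS reduction over 4 h, OD 490 nm; IC50 derived.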

[4] = system: L. donovani Ld39 amastigotes (SSG-resistant); assay: Anti-amastigote activity in infected PEM, L. donovani Ld39; format: cell-based; conditions: for Selective index (a)/(c): IC50 RAW264.7 over IC50 L. donovani Ld39 amastigotes; for IC50: Leishmania donovani, 72 h, infected PEM, 3 days, Giemsa, SSG-resistant
Summary of the method: as §1

[5] = system: promastigotes (L. amazonensis LV78, L major FV1, L. donovani HU3, L. donovani 39); assay: Anti-promastigote activity, strain not given; format: cell-based; conditions: Leishmania amazonensis; strain not specified; read-out: IC50 against promastigotes
Method: Anti-promastigote activity was determined according to previous procedures (1) by Cell Titer 96® Aqueous Assay (Promega) that employed a tetrazolium compound. Promastigotes were seeded into 96-well flat bottom microtiter plate at 1×10^5 cells per well in a final volume of 100 μL medium and incubated with a series of concentrations of synthetic FM. Parasites were incubated at 27° C. for 72 hours. After 72 hours of incubation, 10 μL of MTS:PMS mixture [MTS:2-(4,5-Dimethylthiazol-2-yl-)-5-[3-(carboxymethoxy)phenyl]-2-(4-sulfophenyl)-2H-tetrazolium); PMS: phenazine methosulfate both purchased from Sigma] was added into each well of microtiter plate. The plate was then incubated at 27° C. for 4 hours for color development. After 4 hours of incubation, the OD values were determined at 490 nm using automatic microtiter plate reader (Bio-Rad).
(§3) IC50 values of known antileishmanials and the amine-containing flavonoid monomers of the present invention to promastigotes (L. amazonensis LV78, L major FV1, L. donovani HU3, L. donovani 39), macrophages (Raw 264.7 and PEM) and mouse fibroblast (L929) were determined. The anti-promastigotes activities and cytotoxicity of the amine-containing flavonoid monomers of the invention are shown in Table 1.

[6] = Cytotoxicity, L929 fibroblasts; format: cell-based, mouse; conditions: mouse
Method: as §3

[7] = system: L. donovani HU3 promastigotes; assay: Anti-promastigote activity (MTS assay), L. donovani HU3; format: cell-based; conditions: Leishmania donovani, 72 hours
Summary of the method: as §2

[8] = system: L. amazonensis LV78 amastigotes; assay: Anti-amastigote activity in infected PEM, L. amazonensis LV78; format: cell-based; conditions: for IC50: Leishmania amazonensis, 72 h, infected PEM, 3 days, Giemsa; for Selective index (a)/(b): IC50 RAW264.7 over IC50 L. amazonensis LV78 amastigotes
Summary of the method: as §1

[9] = system: L. amazonensis LV78 promastigotes; assay: Anti-promastigote activity (MTS assay), L. amazonensis LV78; format: cell-based; conditions: Leishmania amazonensis, 72 hours
Summary of the method: as §2

[10] = system: L. donovani HU3 amastigotes; assay: Anti-amastigote activity in infected PEM, L. donovani HU3; format: cell-based; conditions: for IC50: Leishmania donovani, 72 h, infected PEM, 3 days, Giemsa, SSG-sensitive
Summary of the method: as §1

[11] = system: L. major FV1 promastigotes; assay: Anti-promastigote activity (MTS assay), L. major FV1; format: cell-based; conditions: Leishmania major, 72 hours
Summary of the method: as §2

[12] = Preliminary oral bioavailability, single time point plasma concentration oral vs i.v.; format: in vivo, Balb/c mice; conditions: hydrochloride salt in saline, 30 minutes, dose-normalized
Method: FM01.HCl and FM05.HCl were administered to Balb/c mice via intravenous and passive oral administration. The blood plasma was collected at 30 minutes for LC-MSMS analysis and used for preliminary oral bioavailability screening. The corresponding plasma concentration was normalized by the administered dose for oral bioavailability calculation.
FM01 and FM05 hydrochloride salt was dissolved in saline and administered to Balb/c mice either orally or i.v. Plasma level of FM01 and FM05 was determined 30 minutes later by LC-MS and their identity confirmed by LC-MS/MS. Plasma concentration from oral feeding was divided by that obtained from i.v. administration. […] In these preliminary studies, the ratios were 45% for FM01 and 64% for FM05 (FIG. 3).

[13] = Cytotoxicity, peritoneal elicited macrophages (PEM); format: cell-based, mouse; conditions: mouse, peritoneal elicited macrophages (PEM), peritoneal elicited macrophages; read-out: Cytotoxicity IC50, PEM
[14] = Cytotoxicity, RAW264.7 macrophages; format: cell-based; conditions: mouse, RAW264.7 macrophage cells; murine macrophages RAW264.7
Method: Promastigotes of visceral L. donovani Ld39 and LdHU3, and cutaneous L. amazonensis LV78, L. braziliensis UA847 and L. major FV1 were employed in the study. All strains were cultured in Schneider's Drosophila Medium (Invitrogen), pH 6.9 supplemented with 10% (v/v) heat inactivated fetal bovine serum (Hyclone) with 4 mM glutamine (Sigma) and 25 μg/mL gentamicin solution (Invitrogen) at 27° C. for 4 days. RAW264.7 cells were cultured in supplemented DMEM media with 10% heat inactivated FBS and 100 U/mL penicillin and 100 μg/mL of streptomycin. They were maintained at 37° C. in a humidified atmosphere with 5% CO2. The cells were split constantly after a confluent monolayer has been formed. The cells were harvested by a cell scraper.
as §3

[15] = system: L. braziliensis UA847 amastigotes; assay: Anti-amastigote activity in infected PEM, L. braziliensis UA847; format: cell-based; conditions: Leishmania braziliensis, 72 h, 3 days, Giemsa, read-out: Anti-amastigote activity IC50, L. baziliensis UA847
Method: Mouse peritoneal elicited macrophages (PEM) were obtained as previously described (2). A round cover slip (12 mm in diameter) was placed into each well of 24-well culture plate. Mouse PEM were resuspended in supplemented DMEM media containing 10% heat inactivated FBS (v/v), 100 U/mL penicillin and 100 μg/mL streptomycin and seeded into each well at a cell density of 1×10^5 cells per 500 μL. Macrophages were allowed to attach overnight. Non-adherent cells were removed by gentle washing with un-supplemented DMEM media twice. Adherent macrophages were infected with late-log promastigotes at a parasite-to-macrophage ratio of 20:1 overnight at 37° C. with 5% CO2. Non-internalized promastigotes were removed by washing twice with un-supplemented DMEM media. Infected macrophages were further incubated in 500 μL of supplemented DMEM media in the presence or absence of FM for 72 hours at 37° C. After incubation, cover slips were stained with Giemsa and the percentage of macrophages infected and number of amastigotes per 100 macrophages was enumerated.
PEM cells were infected with late-log promastigotes (L. amazonensis LV78, L. braziliensis UA847, L. donovani HU3, L. donovani 39) for 24 hr at 37° C. Infected macrophages were then treated with various antileishmanials and incubated for 3 days at 37° C. After 3 days, the cover slips were stained with Giemsa. The number of amastigotes per 100 macrophages were determined and used to calculate IC50 values.

[16] = system: L. amazonensis LV78 promastigotes; assay: Reactive oxygen species (ROS) level, DCFDA, promastigotes; format: cell-based; conditions: 30 μM
Method: (§4) 50,000 RAW264.7 were seeded in each well of black 96-well plates overnight. Next day, RAW264.7 cells were pre-loaded with 10 μM dichlorofluorescein diacetate (DCFDA) (Abcam) for 1 hr at 37° C. with 5% CO2. A control of non-DCFDA stained cells was also included. The DCFDA-contained supplemented DMEM media was removed. The cells were re-suspended with 10 μM or 30 μM of respective tested compounds and positive control, tert-butyl hydroperoxide. In Leishmania, 1×10^7 promastigotes were also pre-loaded with 10 μM DCFDA at 27° C. for 1 hr. After removing the DCFDA-contained media, the promastigotes were seeded into black 96-well plate and incubated with 30 μM of respective compounds or positive control. The ROS level was determined at different periods of time including 2, 4, 6, 8, 20, 46 and 72 hr using microplate reader (excitation: 485 nm and emission: […]).
(§5) The ROS levels in both macrophage RAW264.7 and L. amazonensis promastigotes was measured by dichlorofluorescein diacetate (DCFDA) dye which is permeable to the cells. With oxidative stress, DCFDA would be oxidized to fluorescent DCF which is an indicator of intracellular ROS level. RAW cells or L. amazonensis promastigotes were pre-loaded with 10 μM of DCFDA for 1 hr, washed and exposed to 39, FM09, pentamidine and amphotericin B for different period of time (2, 4, 6, 8, 20, 46 and 72 hr). The fluorescence level was measured at the 520 nm using 485 nm as an excitation wavelength. 0.1% DMSO or 0.3% DMSO was used as a solvent control. The fluorescent value has been subtracted from non-DCFDA stained cells. The values were presented as mean±standard error of mean.

[17] = system: RAW264.7 cells; assay: Reactive oxygen species (ROS) level, DCFDA, RAW264.7; format: cell-based, murine
Method: as §4, §5

| IC50 [2] [µM] | IC50 [5] [µM] | IC50 [7] [nM] | IC50 [8] [µM] | IC50 [9] [µM] | IC50 [10] [µM] | IC50 [11] [µM] | Ratio of plasma concentration from oral feeding to i.v. administration [12] [%] | IC50 [15] [µM] | Compound | IC50 [3] [nM] | Selective index (a)/(c) [4] | IC50 [4] [µM] | IC50 [6] [µM] | Selective index (a)/(b) [8] | other results |
| --- | --- | --- | --- | --- | --- | --- | --- | --- | --- | --- | --- | --- | --- | --- | --- |
| < 5 | < 5 | 400 ± 100 | 4.1 ± 0.9 | 5.1 ± 1 | 3.5 | 3.9 ± 0.8 | 64 | – | O=c1cc(-c2ccc(OCCC3CCN(Cc4ccncc4)CC3)cc2)oc2ccccc12 [FM05, 2-(4-(2-(1-(pyridin-4-ylmethyl)piperidin-4-yl)ethoxy)phenyl)-4H-chromen-4-one] | 300 ± 100 | <3.7 | > 10 | > 100 | – | half-life ([1]; read-out: Half-life (Distribution and absorption)): 25 min; half-life ([1]; read-out: Half-life (Elimination)): 202 min; Cmax [1]: 313 ng/mL; Tmax [1]: 2 h; Selective index (a)/(b) ([10]; IC50 RAW264.7 over IC50 L. donovani HU3 amastigotes): 10.5 |
| – | – | – | 15.7 ± 5.2 | 15.7 ± 5.2 | – | 17.8 ± 2.2 | – | 1.1 ± 0.1 | N=C(N)c1ccc(OCCCCCOc2ccc(C(=N)N)cc2)cc1 [Pentamidine] | 5300 ± 900 | <1 | > 30 | – | 1.9 | IC50 [13]: 30.4 ± 11 µM; IC50 [14]: 30 ± 5 µM; L. amazon LV78 promastigote ROS Level, Relative fold (RF) ([16]; 2 hr): 1.3 fold; L. amazon LV78 promastigote ROS Level, Relative fold (RF) ([16]; 4 hr): 1.4 fold; L. amazon LV78 promastigote ROS Level, Relative fold (RF) ([16]; 6 hr): 1.5 fold; L. amazon LV78 promastigote ROS Level, Relative fold (RF) ([16]; 20 hr): 1.8 fold; L. amazon LV78 promastigote ROS Level, Relative fold (RF) ([16]; 46 hr): about 2.6 fold; L. amazon LV78 promastigote ROS Level, Relative fold (RF) ([16]; 46 hr, listed as pentamidine): 2.6 fold; L. amazon LV78 promastigote ROS Level, Relative fold (RF) ([16]; 72 hr): ~3.4 fold; RAW264.7 ROS Level, Relative fold (RF) ([17]; 10 μM, 2 hr): 0.9 fold; RAW264.7 ROS Level, Relative fold (RF) ([17]; 10 μM, 4 hr): 0.9 fold; RAW264.7 ROS Level, Relative fold (RF) ([17]; 10 μM, 6 hr): 0.9 fold; RAW264.7 ROS Level, Relative fold (RF) ([17]; 10 μM, 8 hr): 0.8 fold; RAW264.7 ROS Level, Relative fold (RF) ([17]; 10 μM, 20 hr): 0.8 fold; ROS induction in macrophages ([17]; 10 μM, RAW264.7): No ROS induction; RAW264.7 ROS Level, Relative fold (RF) ([17]; 30 μM, 2 hr): 1.1 fold; RAW264.7 ROS Level, Relative fold (RF) ([17]; 30 μM, 4 hr): 1.2 fold; RAW264.7 ROS Level, Relative fold (RF) ([17]; 30 μM, 6 hr): 1.1 fold; RAW264.7 ROS Level, Relative fold (RF) ([17]; 30 μM, 20 hr): 0.9 fold; RAW264.7 ROS Level, Relative fold (RF) ([17]; 30 μM, 46 hr): 0.9 fold |
| < 5 | < 5 | 1200 ± 300 | 1.8 ± 0.6 | 6 ± 1.8 | > 9 | 5.6 ± 1 | 45 | 8.4 | O=c1cc(-c2ccc(OCCN3CCN(Cc4ccncc4)CC3)cc2)oc2ccccc12 [FM01, 2-(4-(2-(4-(pyridin-4-ylmethyl)piperazin-1-yl)ethoxy)phenyl)-4H-chromen-4-one] | 700 ± 100 | – | > 10 | > 33 | 28.8 | – |
